Patent US10201585B2, “Methods for treatment of atherosclerosis” (Stealth Peptides International, Inc., priority 2012, dated 2019)
“And” between values parts separate entries of the source, which are not always exact repeats. Equal entries are not always repeated. “Also recorded” adds a separate entry of the source.

Legend:
[1] = system: Apoprotein E deficient mice; test: En face analysis of atherosclerotic lesions, thoracic aorta (Sudan IV, % of aortic surface covered by lipid); assay type: in vivo; conditions: 12 weeks
From the text: (§1) Apoprotein E deficient mice (Jackson Laboratories, 600 Main Street, Bar Harbor, Me.) were used in this study. The mice were male, 7-8 weeks of age, and between 18-20 g in weight. An initial total cholesterol measurement was made on 30 mice, and the mice were grouped into two groups of 15 to match the total cholesterol measurements. Both groups were fed a “western diet” (40 kcal % butterfat, 0.15% [wt/wt] cholesterol, Harlan Teklad diet TD-88137). Starting at t=0, the control group of 15 mice received vehicle only (phosphate buffered saline at pH 7.4), while the test group of 15 mice received aromatic-cationic peptide reconstituted in phosphate buffered saline. Body weights of the mice were recorded weekly, and mortality checks were performed daily.
(§2) The aromatic-cationic peptide D-Arg-2′6′-Dmt-Lys-Phe-NH2 (sterile lyophilized powder, reconstituted in phosphate buffered saline) was tested. For the 12-week study, test mice received a single, daily dose of the peptide, subcutaneously at 1 mg/kg. Control mice received a single daily dose of vehicle.
(§3) Following the 12 week treatment, mice were euthanized within 48 hours after the last dose by CO2 asphyxiation and the vascular tree was perfused with 5 mL of phosphate buffered saline (pH 7.4). The aorta and aortic sinus were removed for examination. Thoracic aorta were isolated, trimmed of fat, and fixed in formalin for 48-72 hours before analysis. For en face analysis, aortas were laid out and pinned on black matrix for photography, and stained with Sudan IV. Vessels were imaged for surface involvement using a Nikon computerized image analysis system and the percent of the aortic surface area covered by lipid was calculated. Two determinations were done for each image (Quan 1 and Quan 2), and the average was computed. The data were then computed by group and statistically analyzed. Following staining and morphometric analysis, total lipids were extracted from the aortas using the Bligh-Dyer method. WAKO Diagnostics kits (WAKO Diagnostics, Inc., 1600 Bellwood Road Richmond, Va. 23237-1326) were then used to evaluate total cholesterol, free cholesterol, and cholesterol ester. Cholesterol levels were quantitate nad expressed relative to protein levels. Values are expressed as μg lipid per mg protein (see e.g., FIG. 1).

[2] = system: Apoprotein E deficient mice; test: Thoracic aorta lipids (Bligh-Dyer extraction, WAKO kits; TC, FC, CE per mg protein); assay type: in vivo
From the text: as §1, §2, §3

[3] = system: Apoprotein E deficient mice; test: Total lesion area in aortic root 300 μm across aortic valve (cryosections, lipid staining); assay type: in vivo; set-up: Total lesion area in aortic root 300 μm across aortic valve / Total lesion area in aortic root 300 μm across aortic valve, AVE: unit not given here
From the text: as §1
The aromatic-cationic peptide D-Arg-2′6′-Dmt-Lys-Phe-NH2 (sterile lyophilized powder, reconstituted in phosphate buffered saline) was tested. […]
For the aortic sinus, the heart and approximately 5 mm of the ascending aorta was cut from the remainder of the aorta. […] The sinus was imaged at 5 step levels in the region of interest, i.e., the aortic root, for a total distance of 300 μm and the lipid-staining areas and measured (total cross sectional area) using a Nikon computerized image analysis system. The data were then computed by group and statistically analyzed.

[4] = system: Apoprotein E deficient mice; test: Plasma lipoprotein cholesterol by gel electrophoresis (Spife; HDL-C, LDL-C, VLDL-C); assay type: in vivo
From the text: as §1, §2
Blood was collected every four weeks (orbital plexis) under isoflurane anesthesia (3%) and blood lipids were determined. Plasma lipid analysis was conducted for both groups at t=0, 4, 6, 8, and 12 weeks. Plasma lipid analysis using an autoanalyzer included total cholesterol (TC), triglycerides (Trigs), phospholipids (PL), free cholesterol (FC), and cholesterol ester (CE, by calculation). Gel electrophoresis was used to measure levels of high-density lipoprotein cholesterol (HDL-C), low-density lipoprotein cholesterol (LDL-C), and very low-density lipoprotein cholesterol (VLDL-C).

fibroblast cells = test: Coenzyme Q10 levels in fibroblasts treated with peptide; assay type: cell-based; conditions: 10 nM peptide for 16-24 hours or 5 days, DMEM, versus saline treated (FIG. 5)
Description: Fibroblasts were treated with an aromatic-cationic peptide of the present disclosure, and levels of coenzyme Q10 were evaluated.
Fibroblasts were culture by methods known in the art, and treated with the aromatic-cationic peptide D-Arg-2′6′-Dmt-Lys-Phe-NH2 as shown in Table 11 below. Data represents the average n=3-6.
Coenzyme Q10 levels were evaluated by methods known in the art.

[5] = ApoE deficient mice, western diet, peptide 1 mg/kg s.c. daily, individual mouse (sample 16-30)
[6] = treated versus vehicle, 12 weeks (Table 8, FIG. 2)
[7] = μg lipid per mg protein, peptide 1 mg/kg s.c. daily, 12 weeks, individual mouse (sample 16-30)
[8] = Week 0 (baseline), group mean of 15 test mice, vehicle group 25
[9] = Week 0 (start of treatment, baseline), individual mouse of peptide group (sample 16-30)
[10] = Week 4, individual test mice (sample # 16-30), listed as aromatic-cationic peptide
[11] = Week 8, individual test mice (sample # 16-30), listed as aromatic-cationic peptide
[12] = Week 12, AVE of test mice 16-30
[13] = Week 12, individual test mice (sample # 16-30), listed as aromatic-cationic peptide
[14] = treated versus vehicle at 4, 8 and 12 week time points

For D-Arg-2′6′-Dmt-Lys-Phe-NH2, the “Ave. % of Lesion (average of Quan 1 and Quan 2)” value [1, 5] was 2.615% and 0.892% and 9.027% and 3.019% and 7.009% and 4.833% and 1.996% and 1.205% and 9.948% and 2.763% and 6.814% and 4.734% and 0.834% and 11.239% and 12.990%, the “Quan 1 (first determination of % of the aortic surface covered by lipid)” value [1, 5] was 10.000% and 4.700% and the “Quan 2 (second determination of % of the aortic surface covered by lipid)” value [1, 5] was 0.870%. The “Ave (average % of the surface of the aortas showing lesions, group)” value ([1]; group mean of 15 test mice, peptide 1 mg/kg s.c. daily, vehicle group 7.189) was 5.328%, the “Atherosclerotic lesions in the aorta (% lesion area), in words” value ([1]; treated versus vehicle, 1 mg/kg s.c. daily (Table 7, FIG. 1A), 1 mg/kg) was “reduces; also recorded: lower” and the “Thoracic aorta FC (free cholesterol), AVE” value ([2]; group mean of 15 test mice, 12 weeks, vehicle group 7.5) was 5.7 µg/mg. For the same substance, the “Thoracic aorta CE (cholesterol ester), AVE” value ([2]; group mean of 15 test mice, 12 weeks, vehicle group 22.6) was 14.6 µg/mg, the “Thoracic aorta TC (total cholesterol), AVE” value ([2]; group mean of 15 test mice, 12 weeks, vehicle group 30.1) was 20.4 µg/mg and the “Cholesterol esters in the thoracic aorta, in words” value [2, 6] was “lower”. For the same substance, the “Free cholesterol in the thoracic aorta, in words” value [2, 6] was “lower”, the “Total cholesterol in the thoracic aorta, in words” value [2, 6] was “lower” and the “Thoracic aorta CE (cholesterol ester)” value [2, 7] was 13.8 μg/mg and 2.7 μg/mg and 30.3 μg/mg and 14.7 μg/mg and 30.7 μg/mg and 14.1 μg/mg and 4.6 μg/mg (2×) and 5.6 μg/mg (2×) and 28.5 μg/mg and 21.3 μg/mg and 18.6 μg/mg and 11.4 μg/mg and 13.0 μg/mg. The “Thoracic aorta FC (free cholesterol)” value [2, 7] was 7.6 μg/mg (2×) and 4.0 μg/mg and 5.1 μg/mg and 3.0 μg/mg (2×) and 8.1 μg/mg and 2.7 μg/mg and 3.5 μg/mg and 14.6 μg/mg and 6.6 μg/mg and 3.8 μg/mg and 3.6 μg/mg and 3.3 μg/mg and 9.5 μg/mg, the “Thoracic aorta TC (total cholesterol)” value [2, 7] was 21.4 µg/mg and 6.7 µg/mg and 35.4 µg/mg and 17.7 µg/mg and 38.8 µg/mg and 16.8 µg/mg and 8.1 µg/mg and 20.1 µg/mg and 35.1 µg/mg and 9.4 µg/mg and 24.9 µg/mg and 21.7 µg/mg and 7.9 µg/mg and 19.0 µg/mg and 22.5 µg/mg and the “Total lesion area in aortic root 300 μm across aortic valve, AVE” value ([3]; group mean of 15 test mice, 12 weeks, vehicle group 351.77) was 282.72. The “Total (mean) lesion area in the aortic root, in words” value ([3]; treated versus vehicle, 12 weeks (Table 9, FIG. 3)) was “reduces; also recorded: lower”, the “Plasma HDL-C, AVE” value [4, 8] was 28 mg/dL and the “Plasma VLDL-C, AVE” value [4, 8] was 26 mg/dL. For the same substance, the “Plasma LDL-C, AVE” value ([4]; Week 0 (baseline), group mean of 15 test mice, vehicle group 362) was 368 mg/dL, the “Plasma HDL-C” value [4, 9] was 19 mg/dL and 34 mg/dL and 32 mg/dL and 37 mg/dL and 35 mg/dL and 21 mg/dL and 38 mg/dL and 41 mg/dL and 6 mg/dL and 31 mg/dL and 26 mg/dL and 39 mg/dL and 22 mg/dL and 29 mg/dL and 8 mg/dL and the “Plasma LDL-C” value [4, 9] was 258 mg/dL and 260 mg/dL and 307 mg/dL and 245 mg/dL and 268 mg/dL and 295 mg/dL and 304 mg/dL and 474 mg/dL and 287 mg/dL and 352 mg/dL and 380 mg/dL and 481 mg/dL and 410 mg/dL and 432 mg/dL and 773 mg/dL. For the same substance, the “Plasma VLDL-C” value [4, 9] was 25 mg/dL (2×) and 23 mg/dL and 37 mg/dL and 20 mg/dL (2×) and 19 mg/dL and 27 mg/dL and 36 mg/dL and 15 mg/dL and 26 mg/dL and 31 mg/dL and 24 mg/dL and 28 mg/dL and 29 mg/dL, the “HDL-C, Spife (electrophoresis)” value ([4]; Week 4, AVE of test mice 16-30) was 25 mg/dL and the “LDL-C, Spife (electrophoresis)” value ([4]; Week 4, AVE of test mice 16-30) was 940 mg/dL. The “VLDL-C, Spife (electrophoresis)” value ([4]; Week 4, AVE of test mice 16-30) was 33 mg/dL, the “HDL-C, Spife (electrophoresis)” value [4, 10] was 18 mg/dL and 20 mg/dL (3×) and 0 mg/dL and 13 mg/dL and 7 mg/dL and 23 mg/dL and 32 mg/dL (3×) and 15 mg/dL and 45 mg/dL and 44 mg/dL and 49 mg/dL and the “LDL-C, Spife (electrophoresis)” value [4, 10] was 745 mg/dL and 866 mg/dL and 918 mg/dL and 1120 mg/dL and 982 mg/dL and 648 mg/dL and 893 mg/dL and 975 mg/dL and 770 mg/dL and 766 mg/dL and 966 mg/dL and 1147 mg/dL and 874 mg/dL and 1171 mg/dL and 1254 mg/dL. The “VLDL-C, Spife (electrophoresis)” value [4, 10] was 35 mg/dL (2×) and 37 mg/dL (2×) and 19 mg/dL and 44 mg/dL (2×) and 18 mg/dL and 23 mg/dL and 39 mg/dL and 41 mg/dL and 28 mg/dL and 31 mg/dL and 30 mg/dL and 32 mg/dL, the “HDL-C, Spife (electrophoresis)” value ([4]; Week 8, AVE of test mice 16-30) was 32 mg/dL and the “LDL-C, Spife (electrophoresis)” value ([4]; Week 8, AVE of test mice 16-30) was 1166 mg/dL. For the same substance, the “VLDL-C, Spife (electrophoresis)” value ([4]; Week 8, AVE of test mice 16-30) was 84 mg/dL, the “HDL-C, Spife (electrophoresis)” value [4, 11] was 42 mg/dL and 34 mg/dL and 27 mg/dL and 33 mg/dL and 19 mg/dL (2×) and 8 mg/dL and 45 mg/dL and 16 mg/dL and 32 mg/dL and 41 mg/dL (2×) and 25 mg/dL and 43 mg/dL and 57 mg/dL and the “LDL-C, Spife (electrophoresis)” value [4, 11] was 1119 mg/dL and 897 mg/dL and 1392 mg/dL and 1071 mg/dL and 1415 mg/dL and 901 mg/dL and 875 mg/dL and 1378 mg/dL and 922 mg/dL and 856 mg/dL and 1317 mg/dL and 1320 mg/dL and 1025 mg/dL and 1382 mg/dL and 1621 mg/dL. For the same substance, the “VLDL-C, Spife (electrophoresis)” value [4, 11] was 101 mg/dL and 73 mg/dL and 86 mg/dL and 79 mg/dL (2×) and 112 mg/dL and 34 mg/dL and 88 mg/dL and 69 mg/dL and 59 mg/dL and 93 mg/dL and 74 mg/dL and 80 mg/dL and 109 mg/dL and 119 mg/dL, the “HDL-C, Spife (electrophoresis)” value [4, 12] was 21 mg/dL and the “LDL-C, Spife (electrophoresis)” value [4, 12] was 939 mg/dL. The “VLDL-C, Spife (electrophoresis)” value [4, 12] was 44 mg/dL, the “HDL-C, Spife (electrophoresis)” value [4, 13] was 38 mg/dL and 20 mg/dL (2×) and 10 mg/dL and 41 mg/dL and 21 mg/dL and 5 mg/dL and 31 mg/dL (2×) and 2 mg/dL (2×) and 40 mg/dL and 28 mg/dL and 1 mg/dL and 23 mg/dL and the “LDL-C, Spife (electrophoresis)” value [4, 13] was 821 mg/dL and 485 mg/dL and 854 mg/dL and 852 mg/dL and 1328 mg/dL and 693 mg/dL and 611 mg/dL and 692 mg/dL and 962 mg/dL and 896 mg/dL and 1275 mg/dL and 1218 mg/dL and 505 mg/dL and 1203 mg/dL and 1688 mg/dL. The “VLDL-C, Spife (electrophoresis)” value [4, 13] was 39 mg/dL and 35 mg/dL and 21 mg/dL (2×) and 43 mg/dL and 71 mg/dL and 32 mg/dL and 33 mg/dL and 26 mg/dL and 63 mg/dL and 76 mg/dL and 36 mg/dL and 30 mg/dL and 83 mg/dL and 46 mg/dL, the “Plasma LDL-C, in words” value [4, 14] was “reduces” and the “Plasma VLDL-C, in words” value [4, 14] was “reduces”. The “Coenzyme Q10 levels in fibroblast cells” value (fibroblast cells) was “increased”.
